Assay results taken from patent US10485794B2, “Treatment method by combined use of MDM2 inhibitor and BTK inhibitor” (DAIICHI SANKYO COMPANY, LIMITED, priority 2015, dated 2019).

Columns and labels:
[1] = system: ABC-type DLBCL cell line TMD-8 cells; experiment: In vivo effect on subcutaneously transplanted TMD-8 tumor in mice (Test Example 1); design: species or system NOD-SCID mouse; details: for TGI (%): 29 days after tumor inoculation
Description: ABC-type DLBCL cell line TMD-8 cells were suspended to 1×10^8 cells/mL using phosphate-buffered saline. 0.1 mL of the prepared cell suspension was subcutaneously transplanted to each NOD-SCID mouse (female, 6 weeks old). […] The major axis (mm) and minor axis (mm) of tumor were measured over time using an electronic digital caliper. […] Also, the body weights were measured over time using an automatic balance for small animals, and body weight change % was calculated according to calculation formula (5) shown below to study the influence of drug administration on the body weights. In addition, the results of the last body weight measurement were used in dose calculation. […] A: Average tumor volume of the compound-administered group on the date of assessment (*) B: Average tumor volume of the untreated control group on the date of assessment (*) *: The tumor volume was calculated according to ½×[Major axis of tumor]×[Minor axis of tumor]×[Minor axis of tumor].

[2] = Body weight change of TMD-8 tumor-bearing mice (Test Example 1); assay type: in vivo, NOD-SCID mouse
Description: ABC-type DLBCL cell line TMD-8 cells were suspended to 1×10^8 cells/mL using phosphate-buffered saline. 0.1 mL of the prepared cell suspension was subcutaneously transplanted to each NOD-SCID mouse (female, 6 weeks old). […] For a combined use group, 25 mg/kg or 50 mg/kg Compound A and 100 mg/kg or 200 mg/kg ibrutinib were orally administered sequentially by forced administration. […] The major axis (mm) and minor axis (mm) of tumor were measured over time using an electronic digital caliper. […] Also, the body weights were measured over time using an automatic balance for small animals, and body weight change % was calculated according to calculation formula (5) shown below to study the influence of drug administration on the body weights. In addition, the results of the last body weight measurement were used in dose calculation. […] *: The tumor volume was calculated according to ½×[Major axis of tumor]×[Minor axis of tumor]×[Minor axis of tumor]. […] BWn: Body weight on day n BWs: Body weight on the start day of administration

[3] = Compound A 25 mg/kg oral, day 18 after tumor inoculation (first administration)
[4] = Compound A 25 mg/kg oral, day 20 after tumor inoculation
[5] = Compound A 25 mg/kg oral, day 22 after tumor inoculation
[6] = Compound A 25 mg/kg oral, day 25 after tumor inoculation
[7] = Compound A 25 mg/kg oral, day 27 after tumor inoculation
[8] = Compound A 25 mg/kg oral, day 29 after tumor inoculation
[9] = Compound A 50 mg/kg oral, day 18 after tumor inoculation (first administration)
[10] = Compound A 50 mg/kg oral, day 20 after tumor inoculation
[11] = Compound A 50 mg/kg oral, day 22 after tumor inoculation
[12] = Compound A 50 mg/kg oral, day 25 after tumor inoculation
[13] = Compound A 50 mg/kg oral, day 27 after tumor inoculation
[14] = Compound A 50 mg/kg oral, day 29 after tumor inoculation
[15] = Ibrutinib 100 mg/kg oral, day 18 after tumor inoculation (first administration)
[16] = Ibrutinib 100 mg/kg oral, day 20 after tumor inoculation
[17] = Ibrutinib 100 mg/kg oral, day 22 after tumor inoculation
[18] = Ibrutinib 100 mg/kg oral, day 25 after tumor inoculation
[19] = Ibrutinib 100 mg/kg oral, day 27 after tumor inoculation
[20] = Ibrutinib 100 mg/kg oral, day 29 after tumor inoculation
[21] = Ibrutinib 200 mg/kg oral, day 18 after tumor inoculation (first administration)
[22] = Ibrutinib 200 mg/kg oral, day 20 after tumor inoculation
[23] = Ibrutinib 200 mg/kg oral, day 22 after tumor inoculation
[24] = Ibrutinib 200 mg/kg oral, day 25 after tumor inoculation
[25] = Ibrutinib 200 mg/kg oral, day 27 after tumor inoculation
[26] = Ibrutinib 200 mg/kg oral, day 29 after tumor inoculation

SMILES: CC1(C)CCC2(CC1)N[C@@H](C(=O)N[C@@H]1CC[C@@H](C(N)=O)OC1)[C@H](c1ccnc(Cl)c1F)[C@]21C(=O)Nc2cc(Cl)ccc21.Cc1ccc(S(=O)(=O)O)cc1 [Compound A, (3′R,4′S,5′R)—N-[(3R,6S)-6-carbamoyltetrahydro-2H-pyran-3-yl]-6″-chloro-4′-(2-chloro-3-fluoropyridin-4-yl)-4,4-dimethyl-2″-oxo-1″,2″-dihydrodispiro[cyclohexane-1,2′-pyrrolidine-3′,3″-indole]-5′-carboxamide p-toluenesulfonate]
- TGI (%) ([1]; Compound A 25 mg/kg oral): 45%
- Estimated tumor volume, average [1, 3]: 117 mm^3
- Estimated tumor volume, average [1, 4]: 135 mm^3
- Estimated tumor volume, average [1, 5]: 156 mm^3
- Estimated tumor volume, average [1, 6]: 201 mm^3
- Estimated tumor volume, average [1, 7]: 212 mm^3
- Estimated tumor volume, average [1, 8]: 282 mm^3
- TGI (%) ([1]; Compound A 50 mg/kg oral): 58%
- Estimated tumor volume, average [1, 9]: 115 mm^3
- Estimated tumor volume, average [1, 10]: 118 mm^3
- Estimated tumor volume, average [1, 11]: 108 mm^3
- Estimated tumor volume, average [1, 12]: 143 mm^3
- Estimated tumor volume, average [1, 13]: 162 mm^3
- Estimated tumor volume, average [1, 14]: 216 mm^3
- Body weight change (%), average [2, 3]: 0.0%
- Body weight change (%), average [2, 4]: 2.1%
- Body weight change (%), average [2, 5]: 1.8%
- Body weight change (%), average [2, 6]: 1.6%
- Body weight change (%), average [2, 7]: 1.3%
- Body weight change (%), average [2, 8]: 0.1%
- Body weight change (%), average [2, 9]: 0.0%
- Body weight change (%), average [2, 10]: −0.8%
- Body weight change (%), average [2, 11]: −1.7%
- Body weight change (%), average [2, 12]: −2.7%
- Body weight change (%), average [2, 13]: −1.0%
- Body weight change (%), average [2, 14]: −1.7%

SMILES: C=CC(=O)N1CCC[C@@H](n2nc(-c3ccc(Oc4ccccc4)cc3)c3c(N)ncnc32)C1 [Ibrutinib, (R)-1-(3-(4-amino-3-(4-phenoxyphenyl)-1H-pyrazolo[3,4-d]pyrimidin-1-yl)piperidin-1-yl)prop-2-en-1-one]
- TGI (%) ([1]; Ibrutinib 100 mg/kg oral): 58%
- Estimated tumor volume, average [1, 15]: 115 mm^3
- Estimated tumor volume, average [1, 16]: 112 mm^3
- Estimated tumor volume, average [1, 17]: 127 mm^3
- Estimated tumor volume, average [1, 18]: 157 mm^3
- Estimated tumor volume, average [1, 19]: 185 mm^3
- Estimated tumor volume, average [1, 20]: 213 mm^3
- TGI (%) ([1]; Ibrutinib 200 mg/kg oral): 67%
- Estimated tumor volume, average [1, 21]: 119 mm^3
- Estimated tumor volume, average [1, 22]: 120 mm^3
- Estimated tumor volume, average [1, 23]: 115 mm^3
- Estimated tumor volume, average [1, 24]: 149 mm^3
- Estimated tumor volume, average [1, 25]: 153 mm^3
- Estimated tumor volume, average [1, 26]: 166 mm^3
- Body weight change (%), average [2, 15]: 0.0%
- Body weight change (%), average [2, 16]: −0.4%
- Body weight change (%), average [2, 17]: −1.1%
- Body weight change (%), average [2, 18]: −0.2%
- Body weight change (%), average [2, 19]: 0.8%
- Body weight change (%), average [2, 20]: −0.1%
- Body weight change (%), average [2, 21]: 0.0%
- Body weight change (%), average [2, 22]: −1.5%
- Body weight change (%), average [2, 23]: −1.2%
- Body weight change (%), average [2, 24]: 0.2%
- Body weight change (%), average [2, 25]: −0.4%
- Body weight change (%), average [2, 26]: −1.6%
